Test results: patent US20060287316A1, “METHOD FOR IMPROVING PHARMACOKINETICS OF PROTEASE INHIBITORS AND PROTEASE INHIBITOR PRECURSORS” (priority 2005, published 2006)
Values after ≈ are worked out from the molar mass of the structure shown. Values joined by “and” are separate entries in the source; they are usually repeats but may differ in a detail not shown here. Equal entries are not always repeated. Where two headings read alike, the source gives them in different places.

Tests used:
CYP3A4/5 = experiment: Inhibition of CYP450 sub-families; assay type: biochemical; conditions: FIG. 10
[1] = Cytotoxicity in the same cell culture system; assay type: cell-based; conditions: human, MT4 cells
Experimental: Cytotoxicity of PL-100 and other P is was evaluated in the same cell culture system. The selectivity index (SI) is the ratio of cytotoxicity (CC50) to antiviral activity (EC50). The selective index is similar to the therapeutic index but relates to in vitro studies.

[2] = tested on: laboratory adapted HIV strain (NL4-3); experiment: microbe, parasite or virus in culture
Experimental: Briefly, the antiviral activity of PL-100 was determined using MT4 cells infected with a laboratory adapted HIV strain (NL4-3). For comparison, seven approved protease inhibitors (PIs) were tested in parallel.
The effect of 40% human serum on the antiviral activity of PL-100 in MT4 cells infected with NL4-3 was therefore evaluated.

[3] = Plasma concentration after single oral dose in rats (in vivo cleavage of the phosphate group); set-up: species or system male Sprague-Dawley rats; conditions: 50 mg/Kg po, vehicle Mix, 3 rats
Experimental: To assess the extent of in vivo cleavage of the phosphate group from the putative compounds, PL-100, PL-462 (based on PL-100), PL-337 and PL-515 (based on PL-337) compounds were administered po (per os, (i.e., by mouth)) (50 mg/kg) to male Sprague-Dawley rats and their plasma concentration measured at different time intervals post-administration.
All test articles (PL-100, PL-462, PL-337 and PL-515) were prepared in different vehicle at the final concentration of 25 mg/mL. The vehicle composition is as follows: (1) 20% ethanol; 50% propylene glycol; 0.05% w/v Tween 20 and water (Mix); (2) PBS buffer (PBS).
Test articles were administered to male Sprague-Dawley rats at a single oral dose of 50 mg/kg. Each article was tested in three rats. Blood samples (0.2-0.3 mL) were collected at the post-dose time of 10, 20, 40, 60, 120, 180 and 360 minutes. The harvested blood was centrifuged to isolate plasma. The resulting plasma was separated and stored at −70° C.
Plasma samples together with standards and quality control samples were treated to precipitate proteins, then analyzed by HPLC-MS, for the presence of PL-462, PL-100, PL-515 and PL-337.

[4] = tested on: 63 HIV isolates with reduced susceptibility to all approved protease inhibitors; assay type: cell-based, HIV-1; conditions: for % viral strains with EC95s ≦ 200 ng/ml / % viral strains with EC95s ≦ 630 ng/ml: protein-binding adjusted EC95
From the text: The cross-resistance profile of PL-100 against 63 HIV isolates with reduced susceptibility to all approved protease inhibitors (P is) including atazanavir was thus tested.
The panel of 63 viral strains was selected based on the following rationale: 1) High-level loss of susceptibility to specific P is; 2) High-level loss of susceptibility to multiple P is; 3) Good representation of the primary mutations. This panel consists of resistant viruses from highly PI-experienced patients with high-level PI resistance.
The genotype of these viruses encompasses a wide variety of mutational patterns. We particularly looked for the following primary PI mutations: D30N, L33F/I, M461/L, G48V, I50L/V, V82A/F/S/T, I84V and L90M as defined by the International AIDS Society (IAS)-USA.
The dark cells indicate a […], the grey cells indicate FC values of 2.5≦FC<10 and the white cells indicate a FC value of; 0≦FC<2.5. The results of cross-resistance profile are further illustrated in the graph of FIG. 1.
In the cross-resistance profiling studies against the 63 resistant strains mentioned herein, EC95 of PL-100 was determined against each strain. The median EC95 represents the concentration required to inhibit 95% of the viral replication of 50% diverse drug-resistant HIV-1 variants tested. Table 8 illustrates the percentage of resistant strains tested with protein-binding adjusted EC95s≦200 ng/ml. The resistant strains are grouped by the number of primary mutations they have.
The EC95 of PL-100 was determined against each of the 63 resistant strains indicated herein. Table 9 illustrates the percentage of resistant strains tested with protein-binding adjusted EC95s≦630 ng/ml. The resistant strains are grouped by the number of primary mutations they have.

Water solubility = assay type: physicochemical; conditions: water, pH 7.5, aqueous buffer
[5] = Effect of CYP450 inhibitors on metabolism of HIV-1 protease inhibitors in human liver microsomes; assay type: in vitro ADME
Experimental: The effect of CYP450 inhibitors on the metabolism of HIV-1 anti-protease was tested in human liver microsomes.

[6] = 63 diverse, multi-PI-resistant strains
[7] = 63 diverse, multi-PI-resistant strains, FC in IC50 vs NL-4.3
[8] = strains with 0 primary PI mutations
[9] = strains with 1 primary PI mutation
[10] = strains with 2 primary PI mutations
[11] = strains with 3 primary PI mutations
[12] = strains with 4 primary PI mutations
[13] = strains with 5-6 primary PI mutations

COC(=O)N[C@H](C(=O)NCCCC[C@@H](CO)N(CC(C)C)S(=O)(=O)c1ccc(N)cc1)C(c1ccccc1)c1ccccc1 [PL-100, (1S,5S)-(1-{5-[(4-amino-benzenesulfonyl)-isobutyl-amino]-6-hydroxy-hexylcarbamoyl}-2,2-diphenyl-ethyl)-carbamic acid methyl ester]
Inhibition of CYP3A4/5 (CYP3A4/5): inhibits CYP3A4/5
CC50 [1]: 33000 nM
EC50 ([2]; Human immunodeficiency virus 1, NL43, MT4, MT4 cells infected with NL4-3): 16 nM
EC50 ([2]; Human immunodeficiency virus 1, NL43, MT4, culture condition 10% FBS): 18 nM
EC50 ([2]; Human immunodeficiency virus 1, NL43, MT4, culture condition 10% FBS + 40% human serum): 100 nM
Fold Change in EC50 ([2]; culture condition 10% FBS): 1.0
Fold Change in EC50 ([2]; culture condition 10% FBS + 40% human serum): 6 and 5.9
SI (CC50/EC50) ([2]; ratio of cytotoxicity (CC50) to antiviral activity (EC50)): 2,063
AUC [3]: 0.675 ± 0.171 μg/hr * ml
Cmax [3]: 498 ± 203 nM
Tmax [3]: 40 ± 16 min
% FC < 2.5 [4, 6]: 37%
% FC < 10 [4, 6]: 76%
% FC > 50 [4, 6]: 3%
Mean FC [4, 7]: 8.7
Median FC [4, 7]: 3.6
% viral strains with EC95s ≦ 200 ng/ml [4, 8]: 100%
% viral strains with EC95s ≦ 630 ng/ml [4, 8]: 100%
% viral strains with EC95s ≦ 200 ng/ml [4, 9]: 100%
% viral strains with EC95s ≦ 630 ng/ml [4, 9]: 100%
% viral strains with EC95s ≦ 200 ng/ml [4, 10]: 36%
% viral strains with EC95s ≦ 630 ng/ml [4, 10]: 82%
% viral strains with EC95s ≦ 200 ng/ml [4, 11]: 23%
% viral strains with EC95s ≦ 630 ng/ml [4, 11]: 55%
% viral strains with EC95s ≦ 200 ng/ml [4, 12]: 0%
% viral strains with EC95s ≦ 630 ng/ml [4, 12]: 29%
% viral strains with EC95s ≦ 200 ng/ml [4, 13]: 0%
% viral strains with EC95s ≦ 630 ng/ml [4, 13]: 0%
Fold change in IC50 vs. Reference ([4]; sample O3-129578, 46I/82T/84V, panel ID 11): 1.2
Fold change in IC50 vs. Reference ([4]; sample O3-129585, 48V/54V/82A/90M, panel ID 26): 1.9
Fold change in IC50 vs. Reference ([4]; sample O3-129586, 30N/88D/90M, panel ID 28): 1.4
Fold change in IC50 vs. Reference ([4]; sample O3-148709 (non-B subtype), 32I/47A, panel ID 1): 1.4
Fold change in IC50 vs. Reference ([4]; sample O3-1129583, 84V/90M, panel ID 21): 2.3
Fold change in IC50 vs. Reference ([4]; sample O4-148712, 46I/88S, panel ID 122): 0.8
Fold change in IC50 vs. Reference ([4]; sample O4-148712, 46I/88S, panel ID 124): 1.1
Fold change in IC50 vs. Reference ([4]; sample O4-148713, 46I/88S, panel ID 123): 0.4
Fold change in IC50 vs. Reference ([4]; sample O4-148716, 33F/54L/88S/90M, panel ID 10): 1.7
Fold change in IC50 vs. Reference ([4]; sample O4-148721, 32I/46I/47V/50L, panel ID 127): 1.1
Fold change in IC50 vs. Reference ([4]; sample O4-148725, 32I/46L/47V/84V, panel ID 53): 0.6
Fold change in IC50 vs. Reference ([4]; sample O4-148739, 48V/54V/82A/90M, panel ID 138): 1.1
Fold change in IC50 vs. Reference ([4]; sample O4-148742, 46L/48V/82A/84V, panel ID 94): 1.2
Fold change in IC50 vs. Reference ([4]; sample O4-148748, 37S/41K/70E, panel ID 115): 0.9
Fold change in IC50 vs. Reference ([4]; sample O4-148749, 37T/41K/70E, panel ID 151): 1.9
Fold change in IC50 vs. Reference ([4]; sample O4-148751, 54V/84V, panel ID 171): 0.8
Fold change in IC50 vs. Reference ([4]; sample O4-148752, 54V/84V, panel ID 152): 1.2
solubility (Water solubility): 79 µg/mL (≈ 126 µM)
Effect of CYP450 inhibitor on metabolism ([5]; with ketoconazole and sulfaphenazole (FIG. 6)): able to increase the PK of PL-100
Effect of CYP450 inhibitor on metabolism ([5]; with ritonavir (FIG. 6)): most effective combination
